Test system: BHK cells expressing JUNO co-incubated with capacitated mouse sperm
Experiment: Sperm-to-BHK fusion and multinucleation
Type: cell-based, hamster
Details: JUNO-transfected BHK cells + mouse sperm
Description: In this study, the present inventors used BHK cells (Cat #CCL-10; ATCC, RRID: CVCL_1915) which were grown and maintained in DMEM containing 10% FBS. Cells were cultured at 37° C. in 5% CO2. Plasmids were transfected into cells using 2 μl jetPRIME (PolyPlus-transfection) per μg of DNA in 100 μl of reaction buffer for every ml of medium.
Sperm were recovered by incising the cauda epididymis, obtained from adult male mice, in 300 μl of mHTF medium (Kito et al. 2004) supplemented with 4 mg/ml of BSA. The sperm were diluted in fresh medium to a concentration of 5×10^6 cells/ml and incubated for 90 min at 37° C. and 5% CO2 to induce capacitation.
BHK cells were grown on 24-well glass bottom tissue-culture plates. 24 h after plating, cells were transfected with 0.25 μg pcDNA 3.1 -EGFP-MBD-nls plasmids and 0.5 μg of either pCI::H2B-RFP or pCI::JUNO::H2B-RFP. […] Multinucleation percentage was determined as the ratio between the number of nuclei in multinucleated cells (NuM) and the total number of nuclei fluorescent cells (NuF), as follows: % of multinucleation=(NuM/NuF)×100. 500 nuclei (NuF) were counted in each independent repetition (experimental point). In some cases, the number of sperm fused was determined by evaluating the transfer of EGFP-MBD-nls signal from the BHK cell to the sperm nuclei (number of fused sperm/500 BHK cells). […]

Compound | multinucleation (% of multinucleation) (20 μM FdUdr) | levels of multinucleation (% of multinucleation) (4 h, 200 μg/ml cycloheximide vs control)
O=c1[nH]c(=O)n([C@H]2C[C@H](O)[C@@H](CO)O2)cc1F [FdUdr, 5-fluoro-2′-deoxyuridine] | does not inhibit | 
C[C@@H]1C[C@@H]([C@H](O)CC2CC(=O)NC(=O)C2)C(=O)[C@@H](C)C1 [cycloheximide] |  | no differences

Reference: patent US20260133182A1, “METHOD OF DETERMINING FUSOGENIC POTENTIAL OF SPERM AND USE THEREOF IN ASSISTED FERTILIZATION AND DRUG SCREENING” (Technion Research & Development Foundation Limited, priority 2023, published 2026)
